Values after ≈ are worked out from the molar mass of the structure shown. Like-named read-outs stand apart in the source and are kept apart here.
What was measured:
Type in all cases: cell-based
S. aureus ATCC 25923 = assay: MIC/MBC broth dilution, S. aureus ATCC 25923; conditions: Staphylococcus aureus, ATCC25923; S. aureus ATCC 25923, resistant strain (footnote 3)
Method: (§1) The Minimal inhibitory concentration (MIC) and the Minimal bactericidal concentration (MBC) have been tested against various bacteria including patient isolates and antibiotic resistant strains such as S. aureus ATCC 25923, E. coli ATCC 25922, P. aeruginosa ATCC 27853.
(§2) The bacteria were streaked on a nutrient agar plate to obtain a freshly isolated colony subsequently incubated overnight at 37° C. 4-5 isolated colonies were added into Mueller Hinton broth (MHB) solution, incubated for 4 hrs at 37° C. The turbidity was adjusted to the McFarland tube and the solution was diluted with MHB to 1:200.
(§3) The test solution was diluted with dimethyl sulfoxide (DMSO) and MHB in the ratio of 1:4 to get a final concentration of 512 μg/ml. 50 μl of MHB were added to each of twelve wells except the first well. Dilutions were made, mixed and the solutions were then incubated overnight at 37° C.
(§4) In order to determine the MBC, a loopful of each clear well was streaked onto a nutrient containing agar plate, which was subsequently incubated overnight at 37° C. The MBC was then determined as the lowest concentration which has shown no visible colony for each chemical.

Klebsiella pneumoniae = assay: MIC/MBC broth dilution, Klebsiella pneumoniae patient isolates
Method: as §1, §2, §3, §4

E. coli ATCC 25922 = assay: MIC/MBC broth dilution, E. coli ATCC 25922; conditions: Escherichia coli, ATCC25922; E. coli ATCC 25922, resistant strain (footnote 3)
Method: as §1, §2, §3, §4

Escherichia coli = assay: MIC/MBC broth dilution, Escherichia coli patient isolates
Method: as §1, §2, §3, §4

Enterobacter spp. = assay: MIC/MBC broth dilution, Enterobacter spp. patient isolates
Method: as §1, §2, §3, §4

Pseudomonas aeruginosa = assay: MIC/MBC broth dilution, Pseudomonas aeruginosa patient isolates
Method: as §1, §2, §3, §4

Staphylococcus aureus = assay: MIC/MBC broth dilution, Staphylococcus aureus patient isolates
Method: as §1, §2, §3, §4

[1] = system: various bacteria including patient isolates and antibiotic resistant strains; assay: Antibacterial evaluation across all bacteria tested (summary of MIC/MBC)
Method: as §1, §2
The test solution was diluted with dimethyl sulfoxide (DMSO) and MHB in the ratio of 1:4 to get a final concentration of 512 μg/ml. 50 μl of MHB were added to each of twelve wells except the first well. […]
as §4
The first step in the evaluation was to determine the zone of inhibition on agar plates comparing the Example compounds with ampicillin and chloramphenicol as standards. Following this initial screening, the MIC/MBC was determined as previously described and the results are outlined in Table 1 for selected examples.

Acinetobacter spp. = assay: MIC/MBC broth dilution, Acinetobacter spp. patient isolates
Method: as §1, §2, §3, §4

P. aeruginosa ATCC 27853 = assay: MIC/MBC broth dilution, P. aeruginosa ATCC 27853; conditions: Pseudomonas aeruginosa, ATCC27853; P. aeruginosa ATCC 27853, resistant strain (footnote 3)
Method: as §1, §2, §3, §4

[2] = Enterobacter, patient isolate En1
[3] = patient isolates, isolate code not given (one value per isolate)
[4] = Enterobacter, patient isolates, isolate code not given (one value per isolate)
[5] = Acinetobacter, patient isolates, isolate code not given (one value per isolate), read-out: MIC

## CN1C2=C(Cl)C(=O)OC21 (stereo not drawn) [Example 1, 4-chloro-6-methyl-2-oxa-6-azabicyclo[3.1.0]hex-4-en-3-one]
S. aureus ATCC 25923
  MBC: 64 µg/mL (≈ 440 µM)
  MIC: 16 µg/mL (≈ 110 µM)
Klebsiella pneumoniae; patient isolate K1
  MBC: 64 µg/mL (≈ 440 µM)
  MIC: 64 µg/mL (≈ 440 µM)
Klebsiella pneumoniae; patient isolate K2
  MBC: 64 µg/mL (≈ 440 µM)
  MIC: 32 µg/mL (≈ 220 µM)
Klebsiella pneumoniae; patient isolate K3
  MBC: 32 µg/mL (≈ 220 µM)
  MIC: 32 µg/mL (≈ 220 µM)
Klebsiella pneumoniae; patient isolate K4
  MBC: 128 µg/mL (≈ 879 µM)
  MIC: 128 µg/mL (≈ 879 µM)
Klebsiella pneumoniae; patient isolate K5
  MBC: 64 µg/mL (≈ 440 µM)
  MIC: 64 µg/mL (≈ 440 µM)
E. coli ATCC 25922
  MBC: 32 µg/mL (≈ 220 µM)
  MIC: 16 µg/mL (≈ 110 µM)
Escherichia coli; patient isolate E1
  MBC: 32 µg/mL (≈ 220 µM)
  MIC: 32 µg/mL (≈ 220 µM)
Escherichia coli; patient isolate E2
  MBC: 64 µg/mL (≈ 440 µM)
  MIC: 64 µg/mL (≈ 440 µM)
Escherichia coli; patient isolate E3
  MBC: 64 µg/mL (≈ 440 µM)
  MIC: 64 µg/mL (≈ 440 µM)
Escherichia coli; patient isolate E4
  MBC: 64 µg/mL (≈ 440 µM)
  MIC: 32 µg/mL (≈ 220 µM)
Escherichia coli; patient isolate E5
  MBC: 64 µg/mL (≈ 440 µM)
  MIC: 64 µg/mL (≈ 440 µM)
Enterobacter spp.; [2]
  MBC: 64 µg/mL (≈ 440 µM)
  MIC: 32 µg/mL (≈ 220 µM)
Enterobacter spp.; Enterobacter, patient isolate En3, read-out: MBC
  MBC: 32 µg/mL (≈ 220 µM)
Enterobacter spp.; Enterobacter, patient isolate En3, read-out: MIC
  MIC: 32 µg/mL (≈ 220 µM)
Enterobacter spp.; Enterobacter, patient isolate En4, read-out: MBC
  MBC: 128 µg/mL (≈ 879 µM)
Enterobacter spp.; Enterobacter, patient isolate En4, read-out: MIC
  MIC: 64 µg/mL (≈ 440 µM)
Enterobacter spp.; Enterobacter, patient isolate En5, read-out: MBC
  MBC: 64 µg/mL (≈ 440 µM)
Enterobacter spp.; Enterobacter, patient isolate En5, read-out: MIC
  MIC: 64 µg/mL (≈ 440 µM)
Pseudomonas aeruginosa; patient isolate P7
  MBC: 64 µg/mL (≈ 440 µM)
  MIC: 32 µg/mL (≈ 220 µM)
Pseudomonas aeruginosa; patient isolate P10
  MBC: 64 µg/mL (≈ 440 µM)
  MIC: 64 µg/mL (≈ 440 µM)
Pseudomonas aeruginosa; patient isolate P12
  MBC: 128 µg/mL (≈ 879 µM)
  MIC: 128 µg/mL (≈ 879 µM)
Pseudomonas aeruginosa; patient isolate P13
  MBC: 64 µg/mL (≈ 440 µM)
  MIC: 32 µg/mL (≈ 220 µM)
Pseudomonas aeruginosa; patient isolate P14
  MBC: 64 µg/mL (≈ 440 µM)
  MIC: 32 µg/mL (≈ 220 µM)
Pseudomonas aeruginosa; patient isolate P16
  MBC: 64 µg/mL (≈ 440 µM)
  MIC: 32 µg/mL (≈ 220 µM)
Staphylococcus aureus; patient isolate S1
  MBC: > 128 µg/mL
  MIC: 128 µg/mL (≈ 879 µM)
Staphylococcus aureus; patient isolate S2
  MBC: > 128 µg/mL
  MIC: 128 µg/mL (≈ 879 µM)
Staphylococcus aureus; patient isolate S3
  MBC: 128 µg/mL (≈ 879 µM)
  MIC: 64 µg/mL (≈ 440 µM)
Staphylococcus aureus; patient isolate S4
  MBC: > 128 µg/mL
  MIC: 64 µg/mL (≈ 440 µM)
[1]; resistant ATCC strains vs patient isolates
  MIC for antibiotic resistant strains compared with corresponding non-resistant isolates: lower MIC for the antibiotic resistant strains than the corresponding non-resistant isolates
Acinetobacter spp.; Acinetobacter, patient isolate A1, read-out: MBC
  MBC: 16 µg/mL (≈ 110 µM)
Acinetobacter spp.; Acinetobacter, patient isolate A1, read-out: MIC
  MIC: 8 µg/mL (≈ 55 µM)
Acinetobacter spp.; Acinetobacter, patient isolate A2, read-out: MBC
  MBC: 64 µg/mL (≈ 440 µM)
Acinetobacter spp.; Acinetobacter, patient isolate A2, read-out: MIC
  MIC: 64 µg/mL (≈ 440 µM)
Acinetobacter spp.; Acinetobacter, patient isolate A3, read-out: MBC
  MBC: 32 µg/mL (≈ 220 µM)
Acinetobacter spp.; Acinetobacter, patient isolate A3, read-out: MIC
  MIC: 16 µg/mL (≈ 110 µM)
Acinetobacter spp.; Acinetobacter, patient isolate A4, read-out: MBC
  MBC: 64 µg/mL (≈ 440 µM)
Acinetobacter spp.; Acinetobacter, patient isolate A4, read-out: MIC
  MIC: 64 µg/mL (≈ 440 µM)
Acinetobacter spp.; Acinetobacter, patient isolate A5, read-out: MBC
  MBC: 32 µg/mL (≈ 220 µM)
Acinetobacter spp.; Acinetobacter, patient isolate A5, read-out: MIC
  MIC: 32 µg/mL (≈ 220 µM)
P. aeruginosa ATCC 27853
  MBC: 32 µg/mL (≈ 220 µM)
  MIC: 32 µg/mL (≈ 220 µM)

## O=C1OC2NC2=C1Cl (stereo not drawn) [Example 3, 4-chloro-2-oxa-6-azabicyclo[3.1.0]hex-4-en-3-one]
S. aureus ATCC 25923
  MBC: > 128 µg/mL
  MIC: 128 µg/mL (≈ 973 µM)
Klebsiella pneumoniae; [3]
  MBC: 64 µg/mL (≈ 487 µM)
  MIC: 64 µg/mL (≈ 487 µM)
E. coli ATCC 25922
  MBC: 128 µg/mL (≈ 973 µM)
  MIC: 128 µg/mL (≈ 973 µM)
Escherichia coli; [3]
  MBC: 128 µg/mL (≈ 973 µM)
  MIC: 64 µg/mL (≈ 487 µM)
Enterobacter spp.; [4]
  MBC: 64 µg/mL (≈ 487 µM)
  MIC: 64 µg/mL (≈ 487 µM)
Pseudomonas aeruginosa; [3]
  MBC: 128 µg/mL (≈ 973 µM)
  MIC: 128 µg/mL (≈ 973 µM)
Staphylococcus aureus; [3]
  MBC: > 128 µg/mL
  MIC: 128 µg/mL (≈ 973 µM)
Acinetobacter spp.; [5]
  MIC: 32 µg/mL (≈ 243 µM)
P. aeruginosa ATCC 27853
  MBC: 128 µg/mL (≈ 973 µM)
  MIC: 128 µg/mL (≈ 973 µM)

## O=C1OC2C(=C1Cl)N2Cc1ccccc1 (stereo not drawn) [Example 4, 4-chloro-6-benzyl-2-oxa-6-azabicyclo[3.1.0]hex-4-en-3-one]
S. aureus ATCC 25923
  MBC: 8 µg/mL (≈ 36.1 µM)
  MIC: 4 µg/mL (≈ 18 µM)
E. coli ATCC 25922
  MBC: 16 µg/mL (≈ 72.2 µM)
  MIC: 8 µg/mL (≈ 36.1 µM)
Escherichia coli; [3]
  MBC: 16 µg/mL (≈ 72.2 µM)
  MIC: 16 µg/mL (≈ 72.2 µM)
Enterobacter spp.; [4]
  MBC: 16 µg/mL (≈ 72.2 µM)
  MIC: 8 µg/mL (≈ 36.1 µM)
Enterobacter spp.; [3]
  MBC: 32 µg/mL (≈ 144 µM)
  MIC: 16 µg/mL (≈ 72.2 µM)
[1]; summary of Table 1
  broad spectrum antibacterial activity: good broad spectrum activity
Acinetobacter spp.; Acinetobacter, patient isolates, isolate code not given (one value per isolate), read-out: MBC
  MBC: 8 µg/mL (≈ 36.1 µM)
Acinetobacter spp.; [5]
  MIC: 4 µg/mL (≈ 18 µM)
Acinetobacter spp.; [3]
  MBC: 16 µg/mL (≈ 72.2 µM)
  MIC: 8 µg/mL (≈ 36.1 µM)
P. aeruginosa ATCC 27853
  MBC: 32 µg/mL (≈ 144 µM)
  MIC: 16 µg/mL (≈ 72.2 µM)

Reference: patent US20070043008A1, “Condensed Bicyclo[3.1.0] Hex-4-EN Derivatives Useful as Antibacterial Agents” (priority 2003, published 2007)
